Data reported in PMC10141580, “Cyclic Dichalcogenides Extend the Reach of Bioreductive Prodrugs to Harness Thiol/Disulfide Oxidoreductases: Applications to seco-Duocarmycins Targeting the Thioredoxin System” (ACS Central Science, 2023).
Read-outs that look alike come from different tables or passages of the source.

Test system: NCI-60 standardized human tumor cell line panel
Assay: cells
Type: cell-based
Conditions: for NCI-60 screening: Log(RedIndex): log10 reductive index vs P-CC60; for GI50: Homo sapiens

In the case of COc1cc2cc(C(=O)N3C[C@@H](CCl)c4c3cc(OC(=O)N3CCN(C(=O)CCC(=O)N5CCN(C)CC5)[C@H]5CSSC[C@H]53)c3ccccc43)[nH]c2c(OC)c1OC [P-SS66C-CBI-TMI], the “reductive activation index ratio NCI-60/ProliFiler, mean” value (19 overlapping cell lines) is reported as 1.8 fold, the “NCI-60 screening: Log(RedIndex)” value (786-0 (RE) cell line) is reported as 1.22 and the “NCI-60 screening: Log(RedIndex)” value (A498 (RE) cell line) is reported as 1.1. The “NCI-60 screening: Log(RedIndex)” value (ACHN (RE) cell line) was 1.07, the “NCI-60 screening: Log(RedIndex)” value (CAKI-1 (RE) cell line) was 0.94 and the “NCI-60 screening: Log(RedIndex)” value (DU-145 (PR) cell line) was 1.27. The GI50 (786-0, 786-0 (RE) cell line, log10 of GI50 in M, read-out: NCI-60 screening: Log(GI50) (converted)) was 105 nM, the GI50 (786-0, 786-0 (RE) cell line, read-out: NCI-60 screening: Raw GI50) was 110 nM and the GI50 (786-0, 786-0, read-out: GI50) was 110 nM. For the same molecule, the GI50 (A498, A498 (RE) cell line, log10 of GI50 in M, read-out: NCI-60 screening: Log(GI50) (converted)) was 219 nM, the GI50 (A498, A498, read-out: GI50) was 220 nM and the GI50 (A549, A549/ATCC, read-out: GI50) was 90 nM. It also gave a GI50 (A549, cell line A549/ATCC (LC:A549/ATCC), TMI sheet, read-out: NCI-60 screening: Log(GI50) (converted)) of 89.1 nM, a GI50 (ACHN, ACHN (RE) cell line, log10 of GI50 in M, read-out: NCI-60 screening: Log(GI50) (converted)) of 42.7 nM and a GI50 (ACHN, read-out: GI50) of 42 nM. It also gave a GI50 (BT-549, BT-549, read-out: GI50) of 140 nM, a GI50 (BT-549, cell line BT-549 (BR:BT-549), TMI sheet, read-out: NCI-60 screening: Log(GI50) (converted)) of 145 nM and a GI50 (BT-549, cell line BT-549 (BR:BT-549), TMI sheet, read-out: NCI-60 screening: Raw GI50) of 140 nM. For the same molecule, the GI50 (CAKI-1, CAKI-1 (RE) cell line, log10 of GI50 in M, read-out: NCI-60 screening: Log(GI50) (converted)) was 174 nM, the GI50 (CAKI-1, Caki-1, read-out: GI50) was 170 nM and the GI50 (CCRF-CEM, cell line CCRF-CEM (LE:CCRF-CEM), TMI sheet, read-out: NCI-60 screening: Log(GI50) (converted)) was 269 nM. The GI50 (CCRF-CEM, cell line CCRF-CEM (LE:CCRF-CEM), TMI sheet, read-out: NCI-60 screening: Raw GI50) was 270 nM, the GI50 (CCRF-CEM, read-out: GI50) was 270 nM and the GI50 (COLO 205, Colo 205, read-out: GI50) was 140 nM. For the same molecule, the GI50 (COLO 205, cell line COLO 205 (CO:COLO 205), TMI sheet, read-out: NCI-60 screening: Log(GI50) (converted)) was 145 nM, the GI50 (COLO 205, cell line COLO 205 (CO:COLO 205), TMI sheet, read-out: NCI-60 screening: Raw GI50) was 140 nM and the GI50 (DU-145, DU-145 (PR) cell line, log10 of GI50 in M, read-out: NCI-60 screening: Log(GI50) (converted)) was 24.5 nM. The GI50 (DU-145, DU-145, read-out: GI50) was 25 nM, the GI50 (EKVX, cell line EKVX (LC:EKVX), TMI sheet, read-out: NCI-60 screening: Log(GI50) (converted)) was 209 nM and the GI50 (EKVX, read-out: GI50) was 210 nM. It also gave a GI50 (HCC 2998, HCC-2998, read-out: GI50) of 54 nM, a GI50 (HCC 2998, cell line HCC-2998 (CO:HCC-2998), TMI sheet, read-out: NCI-60 screening: Log(GI50) (converted)) of 53.7 nM and a GI50 (HCT-15, HCT-15, read-out: GI50) of 240 nM. The GI50 (HCT-15, cell line HCT-15 (CO:HCT-15), TMI sheet, read-out: NCI-60 screening: Log(GI50) (converted)) was 245 nM, the GI50 (HCT-15, cell line HCT-15 (CO:HCT-15), TMI sheet, read-out: NCI-60 screening: Raw GI50) was 240 nM and the GI50 (HCT-116, HCT-116, read-out: GI50) was 150 nM. It also gave a GI50 (HCT-116, cell line HCT-116 (CO:HCT-116), TMI sheet, read-out: NCI-60 screening: Log(GI50) (converted)) of 155 nM, a GI50 (HCT-116, cell line HCT-116 (CO:HCT-116), TMI sheet, read-out: NCI-60 screening: Raw GI50) of 150 nM and a GI50 (HL-60, HL-60(TB), read-out: GI50) of 48 nM. It also gave a GI50 (HL-60, cell line HL-60(TB) (LE:HL-60(TB)), TMI sheet, read-out: NCI-60 screening: Log(GI50) (converted)) of 47.9 nM, a GI50 (HOP-62, HOP-62, read-out: GI50) of 41 nM and a GI50 (HOP-62, cell line HOP-62 (LC:HOP-62), TMI sheet, read-out: NCI-60 screening: Log(GI50) (converted)) of 41.7 nM. For the same molecule, the GI50 (HOP-92, HOP-92, read-out: GI50) was 180 nM, the GI50 (HOP-92, cell line HOP-92 (LC:HOP-92), TMI sheet, read-out: NCI-60 screening: Log(GI50) (converted)) was 178 nM and the GI50 (HT-29, HT29, read-out: GI50) was 140 nM. It also gave a GI50 (HT-29, cell line HT29 (CO:HT29), TMI sheet, read-out: NCI-60 screening: Log(GI50) (converted)) of 141 nM, a GI50 (HT-29, cell line HT29 (CO:HT29), TMI sheet, read-out: NCI-60 screening: Raw GI50) of 140 nM and a GI50 (Hs-578T, read-out: GI50) of 290 nM. It also gave a GI50 (Hs-578T, read-out: NCI-60 screening: Log(GI50) (converted)) of 295 nM, a GI50 (IGROV-1, IGROV1 (OV) cell line, log10 of GI50 in M, read-out: NCI-60 screening: Log(GI50) (converted)) of 200 nM and a GI50 (IGROV-1, IGROV1, read-out: GI50) of 200 nM. It also gave a GI50 (K562, K-562, read-out: GI50) of 89 nM, a GI50 (K562, cell line K-562 (LE:K-562), TMI sheet, read-out: NCI-60 screening: Log(GI50) (converted)) of 89.1 nM and a GI50 (KM12, KM12, read-out: GI50) of 130 nM. For the same molecule, the GI50 (KM12, cell line KM12 (CO:KM12), TMI sheet, read-out: NCI-60 screening: Log(GI50) (converted)) was 132 nM, the GI50 (KM12, cell line KM12 (CO:KM12), TMI sheet, read-out: NCI-60 screening: Raw GI50) was 130 nM and the GI50 (LOX IMVI, cell line LOX IMVI (ME:LOX IMVI), TMI sheet, read-out: NCI-60 screening: Log(GI50) (converted)) was 69.2 nM. It also gave a GI50 (LOX IMVI, read-out: GI50) of 69 nM, a GI50 (M14, M14, read-out: GI50) of 120 nM and a GI50 (MCF7, MCF7, read-out: GI50) of 15 nM. The GI50 (MCF7, cell line MCF7 (BR:MCF7), TMI sheet, read-out: NCI-60 screening: Log(GI50) (converted)) was 14.8 nM, the GI50 (MDA-MB-435, MDA-MB-435, read-out: GI50) was 150 nM and the GI50 (MDA-MB-435, cell line MDA-MB-435 (ME:MDA-MB-435), TMI sheet, read-out: NCI-60 screening: Log(GI50) (converted)) was 148 nM. For the same molecule, the GI50 (MDA-MB-435, cell line MDA-MB-435 (ME:MDA-MB-435), TMI sheet, read-out: NCI-60 screening: Raw GI50) was 150 nM, the GI50 (MDA-MB-468, MDA-MB-468, read-out: GI50) was 37 nM and the GI50 (MOLT-4, MOLT-4, read-out: GI50) was 63 nM. The GI50 (MOLT-4, cell line MOLT-4 (LE:MOLT-4), TMI sheet, read-out: NCI-60 screening: Log(GI50) (converted)) was 63.1 nM, the GI50 (Malme-3M, cell line MALME-3M (ME:MALME-3M), TMI sheet, read-out: NCI-60 screening: Log(GI50) (converted)) was 135 nM and the GI50 (Malme-3M, cell line MALME-3M (ME:MALME-3M), TMI sheet, read-out: NCI-60 screening: Raw GI50) was 130 nM. It also gave a GI50 (Malme-3M, read-out: GI50) of 130 nM, a GI50 (NCI-H23, NCI-H23, read-out: GI50) of 19 nM and a GI50 (NCI-H23, cell line NCI-H23 (LC:NCI-H23), TMI sheet, read-out: NCI-60 screening: Log(GI50) (converted)) of 18.6 nM. It also gave a GI50 (NCI-H23, cell line NCI-H23 (LC:NCI-H23), TMI sheet, read-out: NCI-60 screening: Raw GI50) of 19 nM, a GI50 (NCI-H226, NCI-H226, read-out: GI50) of 240 nM and a GI50 (NCI-H226, cell line NCI-H226 (LC:NCI-H226), TMI sheet, read-out: NCI-60 screening: Log(GI50) (converted)) of 245 nM. For the same molecule, the GI50 (NCI-H226, cell line NCI-H226 (LC:NCI-H226), TMI sheet, read-out: NCI-60 screening: Raw GI50) was 240 nM, the GI50 (NCI-H322M, read-out: GI50) was 50 nM and the GI50 (NCI-H322M, read-out: NCI-60 screening: Log(GI50) (converted)) was 50.1 nM. It also gave a GI50 (NCI-H460, NCI-H460 (LC) cell line, log10 of GI50 in M, read-out: NCI-60 screening: Log(GI50) (converted)) of 22.4 nM, a GI50 (NCI-H460, NCI-H460, read-out: GI50) of 22 nM and a GI50 (NCI-H522, NCI-H522 (LC) cell line, log10 of GI50 in M, read-out: NCI-60 screening: Log(GI50) (converted)) of 55 nM. It also gave a GI50 (NCI-H522, NCI-H522, read-out: GI50) of 56 nM, a GI50 (OVCAR-3, OVCAR-3 (OV) cell line, log10 of GI50 in M, read-out: NCI-60 screening: Log(GI50) (converted)) of 145 nM and a GI50 (OVCAR-3, OVCAR-3 (OV) cell line, read-out: NCI-60 screening: Raw GI50) of 140 nM. The GI50 (OVCAR-3, OVCAR-3, read-out: GI50) was 140 nM, the GI50 (OVCAR-4, OVCAR-4 (OV) cell line, log10 of GI50 in M, read-out: NCI-60 screening: Log(GI50) (converted)) was 195 nM and the GI50 (OVCAR-4, OVCAR-4, read-out: GI50) was 190 nM. For the same molecule, the GI50 (OVCAR-5, OVCAR-5 (OV) cell line, log10 of GI50 in M, read-out: NCI-60 screening: Log(GI50) (converted)) was 257 nM, the GI50 (OVCAR-5, OVCAR-5, read-out: GI50) was 250 nM and the GI50 (OVCAR-8, OVCAR-8 (OV) cell line, log10 of GI50 in M, read-out: NCI-60 screening: Log(GI50) (converted)) was 91.2 nM. For the same molecule, the GI50 (OVCAR-8, OVCAR-8, read-out: GI50) was 92 nM, the GI50 (PC-3 (PR) cell line, log10 of GI50 in M, read-out: NCI-60 screening: Log(GI50) (converted)) was 479 nM and the GI50 (PC-3, PC-3, read-out: GI50) was 480 nM.
